Here are results for three sequences from article PMC7425875, “Identification of peptides interfering with the LRRK2/PP1 interaction” (PLoS ONE, 2020).

Data set [1] can be described thus: Analysis of peptide integrity in human serum (MALDI-TOF MS). In kind it is in vitro ADME. As to conditions: 37°C, different periods of time, mass spectrometry. The procedure: Peptides were incubated at 37°C in 250 μl of human serum (Sigma Aldrich) for different periods of time. Samples were collected and peptide degradation stopped by freezing. Peptides were extracted from samples using the Proteo Miner Protein Enrichment System (Bio-Rad). Percentage of intact peptide was estimated by mass spectrometry (MS) using MALDI-TOFF as described previously[19] (Bruker Autoflex II) following their protocol. Measurements were performed in triplicate. MS data were analysed using the software Cliprot tools, Felx analysis, Bruker.

The target in data set [2] is T1, LRRK2/PP1 interaction (Homo sapiens, UniProt P62136).
T1 construct: MDA-MB231 cells were lysed and cytoplasmic extracts immunoprecipitated with anti-PP1 antibody (Santa Cruz); endogenous in cells; host or cells: MDA-MB231
T1 sequence (P62136 whole entry): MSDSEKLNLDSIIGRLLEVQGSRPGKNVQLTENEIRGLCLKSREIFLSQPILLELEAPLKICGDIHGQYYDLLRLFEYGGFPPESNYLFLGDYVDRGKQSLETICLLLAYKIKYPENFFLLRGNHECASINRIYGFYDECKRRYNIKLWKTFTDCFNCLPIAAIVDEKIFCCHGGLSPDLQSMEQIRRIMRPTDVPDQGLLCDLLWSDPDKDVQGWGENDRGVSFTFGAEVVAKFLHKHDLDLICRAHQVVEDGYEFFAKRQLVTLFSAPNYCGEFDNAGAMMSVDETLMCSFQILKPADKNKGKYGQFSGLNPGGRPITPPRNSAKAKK
In words: In vitro competition of LRRK2/PP1 interaction in anti-PP1 immunoprecipitates (western blot). As to conditions: 1 mM peptide, 30 min room temperature, MDA-MB231 lysates. In kind it is binding. The procedure: The protocol was previously described. Briefly, cells (5x10^6) were lysed for 20 min at 4°C in lysis buffer (50 mM Tris pH8, 1% NP40, 137 mM NaCl, 1 mM MgCl2, 1 mM CaCl2, 10% glycerol and protease inhibitor mixture Sigma Aldrich). Lysates (500 μg) were immunoprecipitated with the appropriated antibody overnight at 4°C and protein A/G Sepharose (Santa Cruz) was added for 1h at 4°C. After washing with 1x TBST (20 mM Tris-HCl pH7.5, 150 mM NaCl, 0.05% Tween 20), the PP1/LRRK2 interaction was competed using 1 mM of the Mut3DPT-LRRK2-Long or Mut3DPT-LRRK2-Shor peptide for 30 min at room temperature. After several washing steps, immunoprecipitates were separated by SDS-PAGE, transferred to nitrocellulose and blotted with anti PP1 antibody (Santa Cruz or Thermo Fisher 1:500 dilution). The membrane was washed and incubated with PO-conjugates secondary antibody (Dako, 1:1000 dilution). Protein detection was performed using the ECL system (Bio-Rad). As internal control, the blot was also hybridized with anti-LRRK2 antibody (Abcam, ab133474, 1;500 dilution). Western blots were densitometred using Image J. Statistic analysis were done using Anova.
In general terms: Immunoblotting shows a protein as a band on a membrane.

No end group written: not given here.

For “THRPPMWSPVWPPMGFWSRLINRLLEISPY [BBB-LRRK2-Long]”, the “Resistance to degradation by proteases in human serum” value in data set [1] was “only very limited degradation”.
On the same count and under the same terms, for “THRPPMWSPVWPGFWSRLINRLLEI [BBB-LRRK2-Short]” the value was “only very limited degradation”.
On to “VKKKKIKAEIKI [Mut3DPT, Optimized cell penetrating peptide (shuttle alone), derived from DPT-Sh1]”, for which the “Competition of LRRK2/PP1 interaction (LRRK2 detected in anti-PP1 immunoprecipitates)” value in data set [2] was “LRRK2 was detected”.
